Results on 26 compounds are retold here after patent US9242970B2 (ACTELION PHARMACEUTICALS LTD., priority 2010, dated 2016).

Each structure is given as a SMILES string. pIC50: −log10 of the molar value. Like-named read-outs stand apart in the source and are kept apart here.

The target in assay [1] is human orexin-2 receptor (Homo sapiens (Human), UniProt O43614). The experiment in a line: In vitro assay: intracellular calcium measurements (FLIPR), antagonistic activity. It counts as cell-based. To be noted: CHO cells, 3 nM orexin-A, marked values are geometric means of n = 2-6, read-out: IC50 OX2. In general terms: Calcium assays in cells follow changes in intracellular calcium, usually with a dye or a luminescent sensor.
Chain of human orexin-2 receptor (O43614 whole entry): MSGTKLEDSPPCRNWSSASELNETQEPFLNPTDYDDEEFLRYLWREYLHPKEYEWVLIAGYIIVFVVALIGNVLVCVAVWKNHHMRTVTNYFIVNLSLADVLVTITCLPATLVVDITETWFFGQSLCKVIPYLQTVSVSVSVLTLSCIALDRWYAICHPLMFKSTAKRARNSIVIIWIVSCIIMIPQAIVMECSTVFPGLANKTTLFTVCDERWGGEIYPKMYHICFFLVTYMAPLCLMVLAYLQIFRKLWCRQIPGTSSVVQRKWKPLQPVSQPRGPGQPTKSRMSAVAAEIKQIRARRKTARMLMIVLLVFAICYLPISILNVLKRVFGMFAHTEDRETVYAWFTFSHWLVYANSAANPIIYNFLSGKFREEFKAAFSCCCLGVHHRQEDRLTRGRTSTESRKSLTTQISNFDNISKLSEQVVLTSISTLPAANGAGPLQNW

In assay [2] the target is human orexin-1 receptor (Homo sapiens (Human), UniProt O43613). The description is as above. In kind it is cell-based. Conditions: CHO cells, 3 nM orexin-A, marked values are geometric means of n = 2-6, read-out: IC50 OX1.
Chain of human orexin-1 receptor (O43613 whole entry): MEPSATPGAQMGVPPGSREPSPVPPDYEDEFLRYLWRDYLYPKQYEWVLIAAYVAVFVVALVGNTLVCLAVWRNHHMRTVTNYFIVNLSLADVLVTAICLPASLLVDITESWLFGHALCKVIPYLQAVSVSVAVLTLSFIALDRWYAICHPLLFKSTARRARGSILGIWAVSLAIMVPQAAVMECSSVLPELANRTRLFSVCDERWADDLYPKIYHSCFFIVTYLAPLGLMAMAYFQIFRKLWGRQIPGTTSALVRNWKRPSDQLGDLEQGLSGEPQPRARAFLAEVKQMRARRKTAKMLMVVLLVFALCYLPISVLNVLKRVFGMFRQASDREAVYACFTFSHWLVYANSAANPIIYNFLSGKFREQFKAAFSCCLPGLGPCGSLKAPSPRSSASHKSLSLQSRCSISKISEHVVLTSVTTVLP
Setting [3] is: compound incubation time of 10 min.

`COc1cccc(C)c1C1CCCC(=O)N1Cc1ccc(OC(F)(F)F)cc1` (stereo not shown) [Example 222, 6-(2-methoxy-6-methylphenyl)-1-(4-(trifluoromethoxy)benzyl)piperidin-2-one]: the pIC50 (as a rule, the negative decadic logarithm of the IC50, by convention in mol/L) is 6.57 in assay [1] (setting [3]) and 5.36 in assay [2] (setting [3]).

Consider `COc1cccc(C(F)(F)F)c1C1CCCC(=O)N1Cc1ccc(OC(F)(F)F)cc1` (stereo not shown) [Example 223, 6-(2-methoxy-6-(trifluoromethyl)phenyl)-1-(4-(trifluoromethoxy)benzyl)piperidin-2-one], for which the pIC50 was 5.53 in assay [1] (setting [3]) and below 4.67 in assay [2] (setting [3]).

Turning to `O=C1CCCC(c2c(F)cccc2F)N1Cc1ccc(OC(F)(F)F)cc1` (stereo not shown) [Example 224, 6-(2,6-difluorophenyl)-1-(4-(trifluoromethoxy)benzyl)piperidin-2-one], the pIC50 is 5.61 in assay [1] (setting [3]) and 5.50 in assay [2] (setting [3]).

`COc1cc(F)c(C2CCCC(=O)N2Cc2ccc(OC(F)(F)F)cc2)c(F)c1` (stereo not shown) [Example 225, 6-(2,6-difluoro-4-methoxyphenyl)-1-(4-(trifluoromethoxy)benzyl)piperidin-2-one]: the values for the pIC50 in assay [1] (setting [3]) and in assay [2] (setting [3]) were 5.26 and 5.38, respectively.

`Cc1ccc(F)c(C2CCCC(=O)N2Cc2ccc(OC(F)(F)F)cc2)c1F` (stereo not shown) [Example 226, 6-(2,6-difluoro-3-methylphenyl)-1-(4-(trifluoromethoxy)benzyl)piperidin-2-one]: the pIC50 in assay [1] (setting [3]) is 5.61; in assay [2] (setting [3]) it was 5.29.

With `O=C1CCCC(c2c(F)cccc2C(F)(F)F)N1Cc1ccc(OC(F)(F)F)cc1` (stereo not shown) [Example 227, 6-(2-fluoro-6-(trifluoromethyl)phenyl)-1-(4-(trifluoromethoxy)benzyl)piperidin-2-one], the figures for the pIC50 in assay [1] (setting [3]) and in assay [2] (setting [3]) were 5.23 and 5.46, respectively.

For `O=C1CCCC(c2c(Cl)cccc2Cl)N1Cc1ccc(OC(F)(F)F)cc1` (stereo not shown) [Example 228, 6-(2,6-dichlorophenyl)-1-(4-(trifluoromethoxy)benzyl)piperidin-2-one], the values for the pIC50 in assay [1] (setting [3]) and in assay [2] (setting [3]) were 6.34 and 5.53, respectively.

Regarding `O=C1CCCC(c2c(F)cccc2Cl)N1Cc1ccc(OC(F)(F)F)cc1` (stereo not shown) [Example 229, 6-(2-chloro-6-fluorophenyl)-1-(4-(trifluoromethoxy)benzyl)piperidin-2-one], the negative-log IC50 (pIC50) in assay [1] (setting [3]) is 5.92; in assay [2] (setting [3]), 5.54.

Consider `COc1cccc(OC(C)C)c1C1CCCC(=O)N1Cc1ccc(OC(F)(F)F)cc1` (stereo not shown) [Example 230, 6-(2-isopropoxy-6-methoxyphenyl)-1-(4-(trifluoromethoxy)benzyl)piperidin-2-one], for which the pIC50 in assay [1] (setting [3]) is 7.07; in assay [2] (setting [3]), 6.44.

Regarding `COc1cc(F)cc(OC)c1C1CCCC(=O)N1Cc1ccc(OC(F)(F)F)cc1` (stereo not shown) [Example 232, 6-(4-fluoro-2,6-dimethoxyphenyl)-1-(4-(trifluoromethoxy)benzyl)piperidin-2-one], the pIC50 was 7.57 in assay [1] (setting [3]) and 6.57 in assay [2] (setting [3]).

Take `COc1cc(C)cc(OC)c1C1CCCC(=O)N1Cc1ccc(OC(F)(F)F)cc1` (stereo not shown) [Example 233, 6-(2,6-dimethoxy-4-methylphenyl)-1-(4-(trifluoromethoxy)benzyl)piperidin-2-one]: the values for the pIC50 in assay [1] (setting [3]) and in assay [2] (setting [3]) were 6.97 and 6.40, respectively.

As for `COc1cc(F)cc(OC)c1C1CCCC(=O)N1Cc1cccc(-c2ccccc2)c1` (stereo not shown) [Example 234, 1-([1,1′-biphenyl]-3-ylmethyl)-6-(4-fluoro-2,6-dimethoxyphenyl)piperidin-2-one], the pIC50 in assay [1] (compound incubation 120 min) is 6.63; in assay [2] (compound incubation 120 min), 6.58.

Turning to `COc1ccc2c(C)noc2c1C1CCCC(=O)N1Cc1cccc(-c2ccccc2)c1` (stereo not shown) [Example 235, 1-([1,1′-biphenyl]-3-ylmethyl)-6-(6-methoxy-3-methylbenzo[d]isoxazol-7-yl)piperidin-2-one], the pIC50 was 6.71 in assay [1] (compound incubation 120 min) and 6.54 in assay [2] (compound incubation 120 min).

On to `COc1ccccc1C1CCCC(=O)N1Cc1ccc2ccccc2c1` (stereo not shown) [Example 236, 6-(2-methoxyphenyl)-1-(naphthalen-2-ylmethyl)piperidin-2-one], for which the pIC50 in assay [1] (setting [3]) was 6.43; in assay [2] (setting [3]), 5.75.

As for `COc1ccccc1C1CCCC(=O)N1Cc1ccc(OC(F)(F)F)cc1` (stereo not shown) [Example 237, 6-(2-methoxyphenyl)-1-(4-(trifluoromethoxy)benzyl)piperidin-2-one], the values for the pIC50 in assay [1] (setting [3]) and in assay [2] (setting [3]) were 6.20 and 5.46, respectively.

For `COc1cccc(OC)c1C1CCCC(=O)N1Cc1ccc2ccccc2c1` (stereo not shown) [Example 238, 6-(2,6-dimethoxyphenyl)-1-(naphthalen-2-ylmethyl)piperidin-2-one], the pIC50 was 7.33 in assay [1] (setting [3]) and 7.11 in assay [2] (setting [3]).

Consider `O=C1CCCC(c2ccccc2C(F)(F)F)N1Cc1ccc2ccccc2c1` (stereo not shown) [Example 239, 1-(naphthalen-2-ylmethyl)-6-(2-(trifluoromethyl)phenyl)piperidin-2-one], for which the pIC50 in assay [1] (setting [3]) was 5.45; in assay [2] (setting [3]) it was 5.19.

As to `COc1cccc(OC)c1C1CCCC(=O)N1Cc1ccc2c(c1)CCCN2` (stereo not shown) [Example 240, 6-(2,6-dimethoxyphenyl)-1-((1,2,3,4-tetrahydroquinolin-6-yl)methyl)piperidin-2-one], the pIC50 in assay [1] (setting [3]) was 6.22; in assay [2] (setting [3]), 5.69.

As to `COc1cccc(OC)c1C1CCCC(=O)N1Cc1ccc2c(ccn2C)c1` (stereo not shown) [Example 241, 6-(2,6-dimethoxyphenyl)-1-((1-methyl-1H-indol-5-yl)methyl)piperidin-2-one], the pIC50 in assay [1] (setting [3]) is 6.56; in assay [2] (setting [3]) it was 6.37.

On to `COc1cccc(OC)c1C1CCCC(=O)N1Cc1cn2ccccc2n1` (stereo not shown) [Example 242, 6-(2,6-dimethoxyphenyl)-1-(imidazo[1,2-a]pyridin-2-ylmethyl)piperidin-2-one], for which the figures for the pIC50 in assay [1] (setting [3]) and in assay [2] (setting [3]) were 5.86 and 4.75, respectively.

Turning to `COc1cccc(OC)c1C1CCCC(=O)N1Cc1ccc2c(c1)nnn2C` (stereo not shown) [Example 243, 6-(2,6-dimethoxyphenyl)-1-((1-methyl-1H-benzo[d][1,2,3]triazol-5-yl)methyl)piperidin-2-one], the values for the pIC50 in assay [1] (setting [3]) and in assay [2] (setting [3]) were 6.51 and 5.00, respectively.

In the case of `COc1cccc(OC)c1C1CCCC(=O)N1Cc1ccc(-c2ccccc2)cc1` (stereo not shown) [Example 244, 1-([1,1′-biphenyl]-4-ylmethyl)-6-(2,6-dimethoxyphenyl)piperidin-2-one], the pIC50 was 7.14 in assay [1] (setting [3]) and 5.96 in assay [2] (setting [3]).

Regarding `COc1cccc(OC)c1C1CCCC(=O)N1Cc1ccc(N2CCCC2)cc1` (stereo not shown) [Example 245, 6-(2,6-dimethoxyphenyl)-1-(4-(pyrrolidin-1-yl)benzyl)piperidin-2-one], the pIC50 in assay [1] (setting [3]) was 6.88; in assay [2] (setting [3]) it was 5.97.

With `COc1cccc(OC)c1C1CCCC(=O)N1Cc1ccc(OCC(F)(F)F)cc1` (stereo not shown) [Example 246, 6-(2,6-dimethoxyphenyl)-1-(4-(2,2,2-trifluoroethoxy)benzyl)piperidin-2-one], the values for the negative-log IC50 (pIC50) in assay [1] (setting [3]) and in assay [2] (setting [3]) were 7.96 and 6.18, respectively.

`COc1cccc(OC)c1C1CCCC(=O)N1Cc1cc2ccccc2n1C` (stereo not shown) [Example 247, 6-(2,6-dimethoxyphenyl)-1-((1-methyl-1H-indol-2-yl)methyl)piperidin-2-one]: the pIC50 in assay [1] (setting [3]) was 7.39; in assay [2] (setting [3]) it was 6.88.

In the case of `COc1cccc(OC)c1C1CCCC(=O)N1Cc1ccc(S(C)(=O)=O)cc1` (stereo not shown) [Example 248, 6-(2,6-dimethoxyphenyl)-1-(4-(methylsulfonyl)benzyl)piperidin-2-one], the pIC50 in assay [1] (setting [3]) is 5.77; in assay [2] (setting [3]) it was 5.14.
